ChEMBL document CHEMBL3046208, “Natural and synthetic podolactones with potential use as natural herbicide models” (2000)
Calls of active or inactive are those of the source.

Tests used:
Format in all cases: functional
[1] = system: Lactuca sativa; assay: Inhibition of root length of Lactuca sativa cv. Nigra (lettuce) at 0.1 mM after 5 days relative to untreated control; settings: for inhibition at 100 µM: 120 h
[2] = system: Solanum lycopersicum; assay: Inhibition of root length of Solanum lycopersicum (tomato) at 0.1 mM after 5 days relative to untreated control; settings: for inhibition at 100 µM: 120 h
[3] = system: Lactuca sativa; assay: Stimulation of shoot length of Lactuca sativa cv. Roman (lettuce) at 0.1 mM after 5 days relative to untreated control
[4] = system: Lactuca sativa; assay: Stimulation of germination of Lactuca sativa cv. Nigra (lettuce) at 0.1 mM after 5 days relative to untreated control
[5] = system: Allium cepa; assay: Stimulation of root length of Allium cepa (onion) at 0.1 mM after 5 days relative to untreated control
[6] = system: Lactuca sativa; assay: Stimulation of root length of Lactuca sativa cv. Nigra (lettuce) at 0.1 mM after 5 days relative to untreated control
[7] = system: Solanum lycopersicum; assay: Inhibition of germination of Solanum lycopersicum (tomato) at 0.1 mM after 5 days relative to untreated control; settings: for inhibition at 100 µM: 120 h
[8] = system: Solanum lycopersicum; assay: Stimulation of root length of Solanum lycopersicum (tomato) at 0.1 mM after 5 days relative to untreated control
[9] = system: Hordeum vulgare; assay: Stimulation of germination of Hordeum vulgare (barley) at 0.1 mM after 5 days relative to untreated control
[10] = system: Hordeum vulgare; assay: Stimulation of shoot length of Hordeum vulgare (barley) at 0.1 mM after 5 days relative to untreated control
[11] = system: Triticum aestivum; assay: Inhibition of root length of Triticum aestivum (wheat) at 0.1 mM after 5 days relative to untreated control; settings: for inhibition at 100 µM: 120 h
[12] = system: Lactuca sativa; assay: Stimulation of root length of Lactuca sativa cv. Roman (lettuce) at 0.1 mM after 5 days relative to untreated control
[13] = system: Allium cepa; assay: Stimulation of shoot length of Allium cepa (onion) at 0.1 mM after 5 days relative to untreated control
[14] = system: Hordeum vulgare; assay: Stimulation of root length of Hordeum vulgare (barley) at 0.1 mM after 5 days relative to untreated control
[15] = system: Triticum aestivum; assay: Stimulation of root length of Triticum aestivum (wheat) at 0.1 mM after 5 days relative to untreated control
[16] = system: Allium cepa; assay: Inhibition of shoot length of Allium cepa (onion) at 0.1 mM after 5 days relative to untreated control; settings: 120 h
[17] = system: Lactuca sativa; assay: Inhibition of root length of Lactuca sativa cv. Roman (lettuce) at 0.1 mM after 5 days relative to untreated control; settings: for inhibition at 100 µM: 120 h
[18] = system: Triticum aestivum; assay: Inhibition of germination of Triticum aestivum (wheat) at 0.1 mM after 5 days relative to untreated control
[19] = system: Hordeum vulgare; assay: Inhibition of germination of Hordeum vulgare (barley) at 0.1 mM after 5 days relative to untreated control; settings: 120 h
[20] = system: Lepidium sativum; assay: Stimulation of root length of Lepidium sativum at 0.1 mM after 5 days relative to untreated control
[21] = system: Allium cepa; assay: Inhibition of root length of Allium cepa (onion) at 0.1 mM after 5 days relative to untreated control; settings: 120 h
[22] = system: Lactuca sativa; assay: Inhibition of germination of Lactuca sativa cv. Nigra (lettuce) at 0.1 mM after 5 days relative to untreated control; settings: 120 h
[23] = system: Solanum lycopersicum; assay: Stimulation of germination of Solanum lycopersicum (tomato) at 0.1 mM after 5 days relative to untreated control
[24] = system: Lepidium sativum; assay: Stimulation of shoot length of Lepidium sativum at 0.1 mM after 5 days relative to untreated control
[25] = system: Lactuca sativa; assay: Inhibition of shoot length of Lactuca sativa cv. Nigra (lettuce) at 0.1 mM after 5 days relative to untreated control; settings: 120 h
[26] = system: Lactuca sativa; assay: Stimulation of germination of Lactuca sativa cv. Roman (lettuce) at 0.1 mM after 5 days relative to untreated control
[27] = system: Allium cepa; assay: Stimulation of germination of Allium cepa (onion) at 0.1 mM after 5 days relative to untreated control
[28] = system: Lepidium sativum; assay: Inhibition of root length of Lepidium sativum at 0.1 mM after 5 days relative to untreated control; settings: 120 h
[29] = system: Allium cepa; assay: Inhibition of germination of Allium cepa (onion) at 0.1 mM after 5 days relative to untreated control; settings: 120 h
[30] = system: Lactuca sativa; assay: Stimulation of shoot length of Lactuca sativa cv. Nigra (lettuce) at 0.1 mM after 5 days relative to untreated control
[31] = system: Solanum lycopersicum; assay: Inhibition of shoot length of Solanum lycopersicum (tomato) at 0.1 mM after 5 days relative to untreated control; settings: for inhibition at 100 µM: 120 h
[32] = system: Triticum aestivum; assay: Inhibition of shoot length of Triticum aestivum (wheat) at 0.1 mM after 5 days relative to untreated control
[33] = system: Hordeum vulgare; assay: Inhibition of shoot length of Hordeum vulgare (barley) at 0.1 mM after 5 days relative to untreated control
[34] = system: Solanum lycopersicum; assay: Stimulation of shoot length of Solanum lycopersicum (tomato) at 0.1 mM after 5 days relative to untreated control
[35] = system: Triticum aestivum; assay: Stimulation of germination of Triticum aestivum (wheat) at 0.1 mM after 5 days relative to untreated control
[36] = system: Lepidium sativum; assay: Inhibition of germination of Lepidium sativum at 0.1 mM after 5 days relative to untreated control
[37] = system: Lactuca sativa; assay: Inhibition of shoot length of Lactuca sativa cv. Roman (lettuce) at 0.1 mM after 5 days relative to untreated control; settings: 120 h
[38] = system: Triticum aestivum; assay: Stimulation of shoot length of Triticum aestivum (wheat) at 0.1 mM after 5 days relative to untreated control
[39] = system: Hordeum vulgare; assay: Inhibition of root length of Hordeum vulgare (barley) at 0.1 mM after 5 days relative to untreated control; settings: 120 h
[40] = system: Lepidium sativum; assay: Stimulation of germination of Lepidium sativum at 0.1 mM after 5 days relative to untreated control
[41] = system: Lepidium sativum; assay: Inhibition of shoot length of Lepidium sativum at 0.1 mM after 5 days relative to untreated control; settings: 120 h
[42] = system: Lactuca sativa; assay: Inhibition of germination of Lactuca sativa cv. Roman (lettuce) at 0.1 mM after 5 days relative to untreated control; settings: 120 h

COC(=O)[C@@]1(C)CCC[C@]2(C)C3=CC(=O)O[C@H](C(C)C)C3=CC[C@@H]12
< 20%: inhibition at 100 µM [7] | inhibition at 100 µM [11] | inhibition at 100 µM [17] | inhibition at 100 µM [22] | inhibition at 100 µM [25] | inhibition at 100 µM [31] | inhibition at 100 µM [37] | inhibition at 100 µM [39] | inhibition at 100 µM [41] | inhibition at 100 µM [42]
inactive: inhibition [1] | Activity [6] | Activity [10] | inhibition [18] | inhibition [32] | inhibition [33] | Activity [35] | inhibition [36] | Activity [38] | Activity [40]
>40%: Activity [8]
> 40%: inhibition at 100 µM [2]
20%: Activity [5] | Activity [9] | Activity [13] | inhibition at 100 µM [16] | inhibition at 100 µM [19] | Activity [20] | inhibition at 100 µM [21] | Activity [27] | inhibition at 100 µM [28] | inhibition at 100 µM [29]
<20%: Activity [3] | Activity [4] | Activity [12] | Activity [14] | Activity [15] | Activity [23] | Activity [24] | Activity [26] | Activity [30] | Activity [34]

COc1nc(C)nc(NC(=O)NS(=O)(=O)c2ccccc2OCCCl)n1 [LOGRAN]
20%: inhibition at 100 µM [7] | Activity [10] | inhibition at 100 µM [11] | Activity [15] | Activity [23] | Activity [27] | inhibition at 100 µM [29] | inhibition at 100 µM ([32]; 120 h) | inhibition at 100 µM ([33]; 120 h) | Activity [38]
> 40%: inhibition at 100 µM [1] | inhibition at 100 µM [2] | inhibition at 100 µM [16] | inhibition at 100 µM [17] | inhibition at 100 µM ([18]; 120 h) | inhibition at 100 µM [19] | inhibition at 100 µM [21] | inhibition at 100 µM [22] | inhibition at 100 µM [25] | inhibition at 100 µM [28] | inhibition at 100 µM [31] | inhibition at 100 µM [37] | inhibition at 100 µM [39] | inhibition at 100 µM [42]
<20%: Activity [24]
< 20%: inhibition at 100 µM [41]
inactive: inhibition [36] | Activity [40]
>40%: Activity [3] | Activity [4] | Activity [5] | Activity [6] | Activity [8] | Activity [9] | Activity [12] | Activity [13] | Activity [14] | Activity [20] | Activity [26] | Activity [30] | Activity [34] | Activity [35]

COC(=O)[C@@]1(C)CCC[C@]2(C)C3=CC(=O)OCC3=CC[C@@H]12
20%: Activity [4] | Activity [5] | Activity [9] | Activity [13] | inhibition at 100 µM [16] | inhibition at 100 µM [19] | Activity [20] | inhibition at 100 µM [21] | inhibition at 100 µM [22] | Activity [24] | inhibition at 100 µM [28] | inhibition at 100 µM [41]
inactive: inhibition [2] | inhibition [7] | Activity [8] | Activity [10] | inhibition [11] | Activity [12] | Activity [15] | inhibition [17] | inhibition [18] | Activity [23] | inhibition [31] | inhibition [32] | inhibition [33] | Activity [34] | Activity [35] | inhibition [36] | Activity [38] | Activity [40]
> 40%: inhibition at 100 µM [39]
<20%: Activity [3] | Activity [6] | Activity [26] | Activity [27] | Activity [30]
>40%: Activity [14]
< 20%: inhibition at 100 µM [1] | inhibition at 100 µM [25] | inhibition at 100 µM [29] | inhibition at 100 µM [37] | inhibition at 100 µM [42]
